In general, IC50 refers to the concentration that gives 50% inhibition.

Each structure is given as a SMILES string. Bounds are passed on as bounds.

17 compounds from patent US11111232B2, “Substituted cyclobutylpyridine and cyclobutylpyrimidine compounds as indoleamine 2,3-dioxygenase (IDO) inhibitors” (MERCK SHARP & DOHME CORP., priority 2017, dated 2021) can be followed below.

Type in all cases: cell-based
Experiment [1] deals with T1, IDO1 (Homo sapiens, UniProt P14902). The experiment in a line: IDO1 cellular assay in Hela cells stimulated with IFNγ. The note with it: IFNγ 100 ng/mL, 300 uM L-tryptophan, about 48 hours, fluorescence readout. The method, then:
IDO1 Cellular Assay in Hela Cells Stimulated with IFNγ
Hela cells were cultured in complete Hela culture medium (90% EMEM, 10% heat-inactivated fetal bovine serum) and expanded to about 1×10^9 cells. The cells were then collected and frozen down at 1×10^7 cells/vial in 1 mL frozen medium (90% complete Hela culture medium, 10% DMSO)
Compounds to be tested were serially diluted in ten 3-fold steps in DMSO starting from 10 mM DMSO stocks in Echo low volume plate(s).
Frozen Hela cells were thawed and transferred into Hela assay medium (99% complete Hela culture medium, 1% Pen/Strep) with 20 mL medium/vial of cells. The cells were spun down at 250 g in a table top centrifuge for 5 min and suspended in same volume of Hela assay medium. […] Sterile L-tryptophan were added to the cells with final concentration of 300 uM L-tryptophan. A small aliquot (2 mL/plate) of Hela cells were set aside and were not treated with IFNγ, to serve as the Max-E control.
Hela cells with and without IFNγ were dispensed to the respective wells of 384-well assay plates containing the compounds. The plates were incubated for about 48 hours at a 37° C., 5% CO2 incubator. Afterwards, […] of 0.5 M methyl isonipecotate in dimethyl sulfoxide were added into each well and the plates were sealed and incubated at 37° C. without CO2 overnight. The plates were centrifuged for 1 min at 200×g. The resulting fluorescence was measured in a Spectramax plate reader (Molecular Devices) with a 400 nm excitation filter and a 510 nm emission filter.
Potencies were calculated by linear least squares fit to the four parameter logistic IC50 equation.

In experiment [2] the target is T1, IDO1. As to the kind of experiment: IDO1 human whole blood assay. Also noted: Human whole blood was drawn in sodium heparin coated tubes from healthy internal donors; from tissue; host or cells: human whole blood from healthy donors, stimulated with LPS and IFNγ. As to conditions: LPS and IFNγ 100 ng/mL, 18 h, kynurenine by LC/MS/MS. The method, then: IDO1Human Whole Blood Assay
Compounds to be tested were serially diluted in ten 3-fold steps in DMSO starting from 10 mM. […] LPS and IFNγ was prepared in RPMI to a 10× of final conc. (1000 ng/mL), final concentration is 100 ng/mL.
Human whole blood was drawn in sodium heparin coated tubes from healthy internal donors. […] of blood was transferred to each of the wells of a v-bottom 96 well plate. […] of compound was transferred from intermediate dilution plate, and incubated for 15 min. 30 μL from stimulants was then transferred to blood and mixed thoroughly. Plate was covered with breathable membrane and incubated at 37° C. for overnight (18 h).
On day 2 isotope labeled standard of kynurenine and tryptophan was made in water at 10× concentration and […] was added to the blood at […] final concentration. The assay plates were centrifuged at 300×G for 10 min with no brake to separate plasma from red blood cells. […] of plasma samples was removed without disturbing red blood cells. Plasma was diluted with RPMI in 1:1 ratio and proteins were precipitated out with two volume of Acetonitrile. The plates was centrifuged at 4000×G for 60 min. 20 mL of supernatant was carefully transferred to a 384 well plate contain 40 mL of 0.1% formic acid in water and analyzed by LC/MS/MS.
LC/MS/MS analyses were performed using Thermo Fisher's LX4-TSQ Quantum Ultra system. This system consists of four Agilent binary high-performance liquid chromatography (HPLC) pumps and a TSQ Quantum Ultra triple quadruple MS/MS instrument. For each sample, […] were injected onto an Atlantis T3 column (2.1 mm×150 mm, […]) from Waters. The mobile phase gradient pumped at 0.8 mL/min was used to elute the analytes from the column at 25° C. […] Mobile phase A consisted of 0.1% formic acid in water. Mobile phase B consisted of 0.1% of formic acid in acetonitrile. Data was acquired in positive mode using a HESI interface. The operational parameters for the TSQ Quantum Ultra instrument were a spray voltage of 4000 V, capillary temperature of 380° C., vaporizer temperature 400° C., shealth gas 60 arbitrary units, Aux gas 20 arbitrary units, tube lens 85 and collision gas 1.2 mTorr. […] The peak area was integrated by Xcalibur Quan software. The ratios between the kynurenine generated in the reaction and 2D6-Kynurenine spiked-in internal standard were used to generate percentage inhibition and IC50 values. Compounds were titrated and IC50′s were calculated by 4 parameter sigmoidal curve fitting formula.

Another experiment deals with T2, TDO (Homo sapiens, UniProt P48775).
T2 construct: endogenous in cells; host or cells: SW48 cells (A2780 cells as low-TDO control)
The experiment in a line: TDO cellular assay in frozen SW48 cells. The note with it: 300 uM L-tryptophan, about 48 hours, fluorescence readout. The protocol:
TDO Cellular Assay in Frozen SW48 Cells
SW48 cells were cultured in complete RPMI culture medium (90% RPMI, 10% heat-inactivated fetal bovine serum).
Compounds to be tested were serially diluted in ten 3-fold steps in DMSO starting from 10 mM DMSO stocks in Echo low volume plate(s). […] The cells were spun down at 350 g in a table top centrifuge for 5 minutes and suspended in same volume of RPMI assay medium. […] Sterile L-tryptophan (Sigma, Cat #T0254) was added to the cells with final concentration of 300 uM.
SW48 and A2780 cells were dispensed to the respective wells of 384-well assay plates containing the compounds. The plates were incubated for about 48 hours at a 37° C., 5% CO2 incubator. Afterwards, 12 μL of 0.5 M ethyl isonipecotate (Sigma Aldrich, Cat #E33505) in dimethyl sulfoxide were added into each well and the plates were sealed and incubated at 37° C. without CO2 overnight. The plates were centrifuged for 1 minute at 200×g. The resulting fluorescence was measured in a Spectramax plate reader (Molecular Devices) with a 400 nm excitation filter and a 510 nm emission filter.
The fluorescence intensity of each well was corrected for the background observed in wells with A2780 cells and was expressed as a fraction of the intensity observed in wells of SW48 cells and DMSO only. Potencies were calculated by linear least squares fit to the four parameter logistic IC50 equation.

T1 sequence (P14902 whole entry): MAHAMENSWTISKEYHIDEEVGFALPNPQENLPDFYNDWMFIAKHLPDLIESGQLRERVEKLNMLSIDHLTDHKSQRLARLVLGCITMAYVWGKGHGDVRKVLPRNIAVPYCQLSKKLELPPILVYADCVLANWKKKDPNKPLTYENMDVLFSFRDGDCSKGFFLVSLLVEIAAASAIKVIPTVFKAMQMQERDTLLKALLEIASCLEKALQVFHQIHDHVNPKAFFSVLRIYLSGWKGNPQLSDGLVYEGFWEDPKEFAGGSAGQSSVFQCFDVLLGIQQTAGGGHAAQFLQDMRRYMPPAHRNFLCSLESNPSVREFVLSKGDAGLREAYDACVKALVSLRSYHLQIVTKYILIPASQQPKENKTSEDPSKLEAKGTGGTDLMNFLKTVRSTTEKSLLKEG
T2 sequence (P48775 whole entry): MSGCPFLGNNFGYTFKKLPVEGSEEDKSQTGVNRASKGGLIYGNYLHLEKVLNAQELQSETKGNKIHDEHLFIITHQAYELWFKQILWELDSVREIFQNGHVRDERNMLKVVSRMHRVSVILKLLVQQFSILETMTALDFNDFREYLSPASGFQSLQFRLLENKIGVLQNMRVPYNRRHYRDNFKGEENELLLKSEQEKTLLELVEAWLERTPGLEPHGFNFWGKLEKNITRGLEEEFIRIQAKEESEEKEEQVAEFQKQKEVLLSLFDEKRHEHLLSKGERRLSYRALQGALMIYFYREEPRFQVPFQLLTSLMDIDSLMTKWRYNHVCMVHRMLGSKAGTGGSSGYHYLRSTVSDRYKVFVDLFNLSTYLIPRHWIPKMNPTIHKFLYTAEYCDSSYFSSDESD

`O=C(Nc1ccc(C2(C(=O)Nc3ccc(F)cc3)CCC2)nc1CO)c1cccc(Cl)c1` [Example 55, 3-Chloro-N-(6-(1-((4-fluorophenyl)carbamoyl)cyclobutyl)-2-(hydroxymethyl)pyridin-3-yl)benzamide]: the half-maximal inhibitory concentration (IC50) at IDO1 [1] was 2 nM; at IDO1 [2] it was 9 nM.

In the case of `O=C(Nc1ccc(C2(C(=O)Nc3ccc(F)cc3)CCC2)cn1)c1cccc(Cl)c1F` [Example 14, 3-chloro-2-fluoro-N-(5-{1-[(4-fluorophenyl)carbamoyl]cyclobutyl}pyridin-2-yl)benzamide], the values for the IC50 against IDO1 [1], against IDO1 [2] and on TDO were 2080 nM, 157 nM and at least 10000 nM, respectively.

Take `O=C(Nc1ccc(C2(C(=O)Nc3ccc(F)cc3)CCC2)nc1)c1cccc(Cl)c1` [Example 36, 3-Chloro-N-(6-(1-((4-fluorophenyl)carbamoyl)cyclobutyl)pyridin-3-yl)benzamide]: the results for the IC50 at IDO1 [1], against IDO1 [2] and against TDO were 3 nM, 252 nM and at least 10000 nM, respectively.

For `O=C(Nc1ccc(C2(C(=O)Nc3ccc(F)cc3)CCC2)cn1)c1ccnc(C(F)(F)F)c1` [Example 29, N-(5-{1-[(4-fluorophenyl)carbamoyl]cyclobutyl}pyridin-2-yl)-2-(trifluoromethyl)pyridine-4-carboxamide], the half-inhibitory concentration (IC50) on IDO1 [1] is 28 nM; against IDO1 [2], 2880 nM; at TDO, at least 10000 nM.

With `O=C(Nc1ccc(C2(NC(=O)c3ccc(Cl)nc3)CCC2)nc1)c1cccc(Cl)c1` [Example 42, 6-chloro-N-(1-{5-[(3-chlorobenzene-1-carbonyl)amino]pyridin-2-yl}cyclobutyl)pyridine-3-carboxamide], the half-maximal inhibitory concentration (IC50) against IDO1 [1] is 8 nM; against IDO1 [2], 696 nM; against TDO, at least 10000 nM.

For the compound `O=C(Nc1ccc(C2(C(=O)Nc3ccc(F)cn3)CCC2)nc1)c1cccc(Cl)c1` [Example 37, 3-chloro-N-(6-{1-[(5-fluoropyridin-2-yl)carbamoyl]cyclobutyl}pyridin-3-yl)benzamide], the IC50 against IDO1 [1] is 15 nM; on IDO1 [2], 1760 nM; on TDO it was at least 10000 nM.

`O=C(Nc1ccc(C2(NC(=O)c3ccc(Cl)nc3)CCC2)nc1)c1cc(F)cc(F)c1` [Example 41, 6-chloro-N-(1-{5-[(3,5-difluorobenzene-1-carbonyl)amino]pyridin-2-yl}cyclobutyl)pyridine-3-carboxamide]: the IC50 at IDO1 [1] was 9 nM; at IDO1 [2], 406 nM; against TDO, at least 10000 nM.

As to `N#Cc1cccc(C(=O)Nc2ccc(C3(C(=O)Nc4ccc(F)cc4)CCC3)cn2)c1` [Example 24, 3-cyano-N-(5-{1-[(4-fluorophenyl)carbamoyl]cyclobutyl}pyridin-2-yl)benzamide], the IC50 was 8 nM against IDO1 [1], 351 nM on IDO1 [2] and at least 10000 nM against TDO.

Regarding `O=C(Nc1ccc(C2(C(=O)Nc3ccc(F)cc3)CCC2)cn1)C1CCC(F)(F)CC1` [Example 9, 4,4-difluoro-N-(5-{1-[(4-fluorophenyl)carbamoyl]cyclobutyl}pyridin-2-yl)cyclohexane-1-carboxamide], the IC50 at IDO1 [1] is 56 nM; against TDO, at least 10000 nM.

Turning to `N#Cc1cncc(C(=O)Nc2ccc(C3(C(=O)Nc4ccc(F)cc4)CCC3)cn2)c1` [Example 32, 5-cyano-N-(5-{1-[(4-fluorophenyl)carbamoyl]cyclobutyl}pyridin-2-yl)pyridine-3-carboxamide], the IC50 is 174 nM against IDO1 [1] and at least 10000 nM against TDO.

For the compound `O=C(Nc1ccc(C2(C(=O)Nc3ccc(F)cc3)CCC2)cn1)c1cccc(F)c1` [Example 23, 3-Fluoro-N-(5-(1-((4-fluorophenyl)carbamoyl)cyclobutyl)pyridin-2-yl)benzamide], the half-maximal inhibitory concentration (IC50) is 3 nM on IDO1 [1], 102 nM against IDO1 [2] and at least 10000 nM against TDO.

With `O=C(Nc1ccc(C2(C(=O)Nc3ccc(F)cc3)CCC2)cn1)c1cncc(Cl)c1` [Example 25, 5-chloro-N-(5-{1-[(4-fluorophenyl)carbamoyl]cyclobutyl}pyridin-2-yl)pyridine-3-carboxamide], the IC50 at IDO1 [1] is 12 nM; against IDO1 [2] it was 561 nM; at TDO, at least 10000 nM.

With `O=C(Nc1ccc(C2(C(=O)NC3CCC(F)(F)CC3)CCC2)cn1)c1cncc(Cl)c1` [Example 33, 5-Chloro-N-(5-(1-((4,4-difluorocyclohexyl)carbamoyl)cyclobutyl)pyridin-2-yl)nicotinamide], the results for the IC50 against IDO1 [1] and against TDO were 1600 nM and at least 10000 nM, respectively.

Consider `O=C(Nc1ccc(C2(C(=O)Nc3ccc(F)nc3)CCC2)cn1)C1CCCCC1` [Example 7, N-(5-{1-[(6-fluoropyridin-3-yl)carbamoyl]cyclobutyl}pyridin-2-yl) cyclohexanecarboxamide], for which the IC50 was 25 nM at IDO1 [1], 8560 nM on IDO1 [2] and at least 10000 nM at TDO.

With `O=C(Nc1ccc(C2(NC(=O)c3ccc(Cl)nc3)CCC2)nc1)c1ccnc(C(F)(F)F)c1` [Example 45, 6-chloro-N-[1-(5-{[2-(trifluoromethyl)pyridine-4-carbonyl]amino}pyridin-2-yl)cyclobutyl]pyridine-3-carboxamide], the half-maximal inhibitory concentration (IC50) at IDO1 [1] is 469 nM; against TDO, at least 10000 nM.

For the compound `O=C(Nc1ccc(C2(C(=O)Nc3ccc(F)cc3)CCC2)cn1)N1CCCC1` [Example 31, N-(5-{1-[(4-fluorophenyl)carbamoyl]cyclobutyl}pyridin-2-yl)pyrrolidine-1-carboxamide], the IC50 against IDO1 [1] is 145 nM; against TDO, at least 10000 nM.

As to `Cc1cc(C(=O)Nc2ccc(C3(NC(=O)c4ccc(Cl)nc4)CCC3)nc2)ccn1` [Example 46, 6-chloro-N-(1-{5-[(2-methylpyridine-4-carbonyl)amino]pyridin-2-yl}cyclobutyl)pyridine-3-carboxamide], the figures for the 50% inhibitory concentration (IC50) against IDO1 [1] and against TDO were 1060 nM and at least 10000 nM, respectively.
